From patent publication US5714363A, “Deacetoxycephalosporin C hydroxylase” (priority 1992, dated 1998)
Like-named read-outs stand apart in the source and are kept apart here.

Experiments:
DAOC hydroxylase [1] = molecular target: T1, DAOC hydroxylase (Streptomyces clavuligerus, UniProt P42220); experiment: Substrate specificity of purified DAOC hydroxylase; type: biochemical; parameters: The highly purified native enzyme (92% purity) has a molecular weight of 35,000 dalton; endogenous in cells; host or cells: Streptomyces clavuligerus cells (native producer; NRRL 18491 is named as preferred strain), enzyme purified from cell-free extract
T1 sequence (P42220 1-318): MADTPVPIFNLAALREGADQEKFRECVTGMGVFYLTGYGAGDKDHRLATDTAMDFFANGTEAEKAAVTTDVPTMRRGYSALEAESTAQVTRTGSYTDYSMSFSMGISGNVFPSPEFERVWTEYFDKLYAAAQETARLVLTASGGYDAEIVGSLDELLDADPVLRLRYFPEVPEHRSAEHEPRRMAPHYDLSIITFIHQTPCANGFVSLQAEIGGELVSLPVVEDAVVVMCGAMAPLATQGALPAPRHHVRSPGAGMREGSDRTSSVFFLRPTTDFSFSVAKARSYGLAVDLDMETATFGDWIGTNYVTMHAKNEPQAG
Procedure: Several compounds were evaluated as substrates for the purified enzyme to determine its substrate specificity. The compounds evaluated and the results are shown below in TABLE 4. The results were obtained by EPLC analysis.
(§1) The activity of the DAOC hydroxylase is determined throughout the process by the following assay method. The hydroxylase activity was determined by monitoring DAC formation from DAOC at 260 nm with HPLC as described by Dotzlaf, J. E., and Yeh, W.-K. (1987) J. Bacteriol., 169, 1611-1618. […] The enzymatic reaction is initiated by adding the DAOC and the reaction is conducted for 20 minutes at 29° C. DAC formation is linear with reaction time for up to 40 minutes. One unit of enzyme activity is defined as the amount of hydroxylase required to cause formation of one μmol of DAC per minute from DAOC under the above-described assay conditions.

DAOC hydroxylase [2] = molecular target: T1, DAOC hydroxylase; experiment: Stoichiometry of DAOC to DAC conversion; type: biochemical; parameters: The highly purified native enzyme (92% purity) has a molecular weight of 35,000 dalton; endogenous in cells; host or cells: Streptomyces clavuligerus cells (native producer; NRRL 18491 is named as preferred strain), enzyme purified from cell-free extract
Procedure: The stoichiometry of the hydroxylase conversion of DAOC to DAC was determined. The molar ratio for DAC-formation/DAOC-disappearance during a 3 h reaction remained in the range of 0.91-1.00 as shown by the plot in FIG. 2. The conversion of DAOC to DAC was only partially complete (58%) under the reaction conditions.

[3] = Procedure: The DAOC hydroxylase is recognized as unstable and, accordingly, was difficult to isolate and obtain in a high state of purity from cell-free extracts.
The process of this invention comprises the use of a hydroxylase stabilizing buffer which is used both in the preparation of crude cell-free extracts of the enzyme and during the isolation and purification thereof. The stabilizing buffer, referred to herein as buffer A, comprises 15 mM MOPS buffer, pH 7.3, containing 1 mM uric acid, 1 mM mannitol and 0.1M KCl.

DAOC hydroxylase [4] = molecular target: T1, DAOC hydroxylase; experiment: DAOC hydroxylase activity assay (DAC formation from DAOC, HPLC at 260 nm); type: biochemical; parameters: The highly purified native enzyme (92% purity) has a molecular weight of 35,000 dalton; endogenous in cells; host or cells: Streptomyces clavuligerus cells (native producer; NRRL 18491 is named as preferred strain), enzyme purified from cell-free extract; settings: no external Fe2+
Procedure: as §1
The specific activity of the hydroxylase is defined as units per milligram of protein.

DAOC hydroxylase [5] = molecular target: T1, DAOC hydroxylase; experiment: Kinetic parameters of DAOC hydroxylase (Lineweaver-Burk)
Procedure: The activity of the DAOC hydroxylase is determined throughout the process by the following assay method. The hydroxylase activity was determined by monitoring DAC formation from DAOC at 260 nm with HPLC as described by Dotzlaf, J. E., and Yeh, W.-K. (1987) J. Bacteriol., 169, 1611-1618. […] The enzymatic reaction is initiated by adding the DAOC and the reaction is conducted for 20 minutes at 29° C. […] One unit of enzyme activity is defined as the amount of hydroxylase required to cause formation of one μmol of DAC per minute from DAOC under the above-described assay conditions.

[6] = substrate: O=C(O)CCC(=O)C(=O)O; experiment: purified protein, by the assay type; settings: other: saturated concentration of the other substrate (300 μM DAOC or α-KG); pH 7.3; 29.0 °C
[7] = substrate: CC1=C(C(=O)O)N2C(=O)[C@@H](NC(=O)CCC[C@@H](N)C(=O)O)[C@H]2SC1; experiment: purified protein, by the assay type; settings: other: saturated concentration of the other substrate (300 μM DAOC or α-KG); pH 7.3; 29.0 °C

## CC1=C(C(=O)O)N2C(=O)[C@@H](NC(=O)CCC[C@@H](N)C(=O)O)[C@H]2SC1 [DAOC, deacetoxycephalosporin C]
DAOC hydroxylase [1]; compound as substrate
  Sp. Activity (mU/mg): 159.2 mU/mg
DAOC hydroxylase [1]; compound as substrate, relative to DAOC = 100
  Relative Activity (%): 100%
DAOC hydroxylase [1]; relative to DAOC to DAC = 100, substrate of the reaction
  Vmax (Percent Catalytic Activities, relative Vmax): 100%
DAOC hydroxylase [2]; 3 h reaction
  conversion of DAOC to DAC: 58%
DAOC hydroxylase [2]; during a 3 h reaction
  molar ratio DAC-formation/DAOC-disappearance: 0.91-1.00

## CCO [ethyl alcohol]
[3]
  effect on the stability of the hydroxylase: no effect

## [Fe+2] [ferrous ion]
DAOC hydroxylase [4]
  enzymatic activity without external Fe2+: 2 % of maximum
DAOC hydroxylase [5]; activator ferrous ion
  Ka of the hydroxylase: 20 µM

## O=S(=O)(F)Cc1ccccc1 [phenylmethylsulfonyl fluoride]
[3]; added during preparation of the extracts
  effect on the stability of the hydroxylase: no effect

B1: DAOC hydroxylase: enzyme from Streptomyces clavuligerus converting DAOC to DAC; monomeric, about 35,000 dalton (protein, UniProt P42220 2-318, looked up)
Deacetoxycephalosporin C …: ADTPVPIFNLAALREGADQEKFRECVTGMGVFYLTGYGAGDKDHRLATDTAMDFFANGTEAEKAAVTTDVPTMRRGYSALEAESTAQVTRTGSYTDYSMSFSMGISGNVFPSPEFERVWTEYFDKLYAAAQETARLVLTASGGYDAEIVGSLDELLDADPVLRLRYFPEVPEHRSAEHEPRRMAPHYDLSIITFIHQTPCANGFVSLQAEIGGELVSLPVVEDAVVVMCGAMAPLATQGALPAPRHHVRSPGAGMREGSDRTSSVFFLRPTTDFSFSVAKARSYGLAVDLDMETATFGDWIGTNYVTMHAKNEPQAG
[3]; crude extract in stabilizing buffer A (15 mM MOPS pH 7.3, 1 mM uric acid, 1 mM mannitol, 0.1M KCl)
  half-life: 72 h
[3]; crude extract, 4° C., 15 mM Tris-HCl buffer, pH 7.5
  half-life: 12 h
[3]; stabilizing buffer A
  improvement of half-life over Tris-HCl buffer: 6 fold
DAOC hydroxylase [5]; DAOC to DAC, optimal reaction conditions
  Vmax of the hydroxylase: 0.45 μM of DAC formed per minute per milligram of protein

B2: DAOC hydroxylase (Streptomyces clavuligerus) (protein)
chain: MADTPVPIFNLAALREGADQEKFRECVTGMGVFYLTGYGAGDKDHRLATDTAMDFFANGTEAEKAAVTTDVPTMRRGYSALEAESTAQVTRTGSYTDYSMSFSMGISGNVFPSPEFERVWTEYFDKLYAAAQETARLVLTASGGYDAEIVGSLDELLDADPVLRLRYFPEVPEHRSAEHEPRRMAPHYDLSIITFIHQTPCANGFVSLQAEIGGELVSLPVVEDAVVVMCGAMAPLATQGALPAPRHHVRSPGAGMREGSDRTSSVFFLRPTTDFSFSVAKARSYGLAVDLDMETATFGDWIGTNYVTMHAKNEPQAG
[6]
  Km: 10 µM
[7]
  Km: 50 µM
